BindingDB's records for doi:10.1021/jm990095j (Medivir, 1999)

Columns and labels:
Test in all cases: HIV-1 RT Assay
[1] = biological target: T1, Gag-Pol polyprotein [588-1027,K690N]/[588-1147,K690N] (Human immunodeficiency virus 1, UniProt P04585, K690N)
T1 construct: 588-1027; 588-1147

[2] = biological target: T2, Gag-Pol polyprotein [588-1027]/[588-1147] (Human immunodeficiency virus 1, UniProt P04585)
T2 construct: 588-1027; 588-1147

[3] = biological target: T3, Gag-Pol polyprotein [588-1127,Y768C]/[588-1147,Y768C] (Human immunodeficiency virus 1, UniProt P04585, Y768C)
T3 construct: 588-1127; 588-1147

Compound | IC50 ([1]; pH 7.8, 37 °C) [nM] | IC50 [1] [nM] | IC50 ([2]; pH 7.8, 37 °C) [nM] | further results
COc1ccc(C(C)=O)c(F)c1CCNC(=O)Nc1ccc(Cl)cn1 [N-[2-(3-Acetyl-2-fluoro-6-methoxyphenethyl)]-N-[2-(5-chloropyridy)]urea] | > 2700 |  |  | 
COc1ccc2c(c1)N(C(=O)OC(C)C)[C@@H](CSC)C(=S)N2 [propan-2-yl (2S)-7-methoxy-2-[(methylsulfanyl)methyl]-3-sulfanylidene-1,2,3,4-tetrahydroquinoxaline-1-carboxylate] |  | 56 |  | IC50 [2]: 8 nM; IC50 [3]: 9 nM
CCOc1ccc(F)c(CCNC(=O)Nc2ccc(Br)cn2)c1Cl | > 2400 |  | 4 | 
CN(C)c1ccc(F)c(CCNC(=O)Nc2ccc(Br)cn2)c1F | > 2500 |  | 25 | 
O=C(Nc1ccc(Cl)cn1)NC1CC1c1c(F)ccc(O)c1Cl (stereo not drawn) [N-[cis-2-(2-Chloro-6-fluoro-3-hydroxyphenyl)cyclopropyl]-N-[2-(5-chloropyridyl)]urea] |  | > 2700 |  | 
COc1c(C(C)=O)ccc(F)c1CCNC(=O)Nc1ccc(Cl)cn1 [1-(5-chloropyridin-2-yl)-3-[2-(3-acetyl-6-fluoro-2-methoxyphenyl)ethyl]urea] | > 2700 |  |  | 
CCC(=O)c1ccc(F)c(C2CC2NC(=O)Nc2ccc(C#N)cn2)c1O (stereo not drawn) [N-[cis-2-(6-Fluoro-2-hydroxy-3-propionylphenyl)cyclopropyl]-N-[2-(5-cyanopyridyl)]urea] |  | 97 |  | 
COc1ccc(OC)c(CCNC(=O)Nc2ccc(Cl)cn2)c1F [1-(5-chloropyridin-2-yl)-3-[2-(2-fluoro-3,6-dimethoxyphenyl)ethyl]urea] |  |  | 3 | 
